Among the data in patent US20250163043A1 (TRANSTHERA SCIENCES (NANJING), INC., priority 2021, published 2025) are IC50 values, retold here.

This assay concerns the target CDK9/CycT1 (Homo sapiens, UniProt P50750). Nature of the assay: ADP-Glo kinase assay on CDK enzymatic activity, CDK9/CycT1. The assay is classed as biochemical. The settings on record: 10 concentrations from 10 μM, 4-fold, 60 min room temperature. An excerpt: Test samples: the compounds of the present invention, having structures shown above.
ADP-Glo Kinase Assay (ADP-Glo kinase kit), DMSO (dimethyl sulfoxide), CDK9/CycT1 (cyclin-dependent kinase 9/cyclin T1), CDK tide (cyclin-dependent kinase substrate peptide fragments), CDK1/CycE1 (cyclin-dependent kinase 1/cyclin E1), CDK2/CycA2 (cyclin-dependent kinase 2/cyclin A2), CDK3/CycE1 (cyclin-dependent kinase 3/cyclin E1), CDK4/CycD3 (cyclin-dependent kinase 4/cyclin D3), CDK5/p25NCK (cyclin-dependent kinase 5/p25), and AZD 4573.
A 384-well white plate, a 96-well plate, a microplate oscillator, a centrifuge, and a microplate reader.
The compounds were dissolved in DMSO and diluted 4-fold in the 96-well plate to obtain stock solutions with 10 concentration gradients, and added into a 384-well plate system to obtain a series of 10 concentration gradients of compound solutions with final concentrations of 10 μM starting and 4-fold gradient decreasing. 1 μM AZD4573 was used as compound positive control (PC) and 0.5% DMSO as solvent vehicle control (VC), ten duplicated wells each for PC and VC.
1 μL of compound solution and 2 μL of 2× kinase solution were transferred to each well, and the plate was centrifuged at 1000 g for 30 s and left at room temperature for 10 min. A mixture of 2× substrate and ATP was prepared in 1× kinase buffer. The reaction was started after adding 2 μL of substrate and ATP into the plate. The plate was centrifuged at 1000 g for 30 s. The assay plate was closed and left at room temperature for 60 min. The reaction system was added with 4 μL of ADP Glo reagent, centrifuged at 1000 rpm for 1 min, and incubated at room temperature for 40 min. The reaction system was added with 8 μL of kinase assay reagent, centrifuged at 1000 rpm for 1 min and incubated at room temperature for 40 min. The […] was read on Biotek.
The inhibition rate was calculated according to the following formula: […]
Lumcmpd: compound fluorescence reading; Lumpositive: average value of the fluorescence reading of positive compound control; Lumvehicle: average value of the fluorescence reading of solvent vehicle control.
IC50 values were fitted using GraphPad 7.0 based on inhibition rates of compounds at different concentrations.

As a reminder, the IC50 is the point on the concentration scale where inhibition reaches its midpoint. High values mean weaker potency in that assay, low ones greater potency in that assay.

Sequence of CDK9/CycT1 (P50750 whole entry, the tested form may be a part): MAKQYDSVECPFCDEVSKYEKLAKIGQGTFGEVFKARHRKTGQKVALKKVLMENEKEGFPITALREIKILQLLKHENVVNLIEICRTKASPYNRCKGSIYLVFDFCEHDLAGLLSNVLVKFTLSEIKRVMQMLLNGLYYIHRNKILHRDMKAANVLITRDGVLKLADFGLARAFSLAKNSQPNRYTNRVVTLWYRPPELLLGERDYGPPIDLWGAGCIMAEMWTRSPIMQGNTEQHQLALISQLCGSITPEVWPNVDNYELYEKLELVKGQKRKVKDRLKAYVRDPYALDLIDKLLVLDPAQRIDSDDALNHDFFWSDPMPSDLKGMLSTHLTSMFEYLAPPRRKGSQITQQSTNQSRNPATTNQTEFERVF
Sequence of CDK9/CycT1 (O60563 whole entry partner, the tested form may be a part): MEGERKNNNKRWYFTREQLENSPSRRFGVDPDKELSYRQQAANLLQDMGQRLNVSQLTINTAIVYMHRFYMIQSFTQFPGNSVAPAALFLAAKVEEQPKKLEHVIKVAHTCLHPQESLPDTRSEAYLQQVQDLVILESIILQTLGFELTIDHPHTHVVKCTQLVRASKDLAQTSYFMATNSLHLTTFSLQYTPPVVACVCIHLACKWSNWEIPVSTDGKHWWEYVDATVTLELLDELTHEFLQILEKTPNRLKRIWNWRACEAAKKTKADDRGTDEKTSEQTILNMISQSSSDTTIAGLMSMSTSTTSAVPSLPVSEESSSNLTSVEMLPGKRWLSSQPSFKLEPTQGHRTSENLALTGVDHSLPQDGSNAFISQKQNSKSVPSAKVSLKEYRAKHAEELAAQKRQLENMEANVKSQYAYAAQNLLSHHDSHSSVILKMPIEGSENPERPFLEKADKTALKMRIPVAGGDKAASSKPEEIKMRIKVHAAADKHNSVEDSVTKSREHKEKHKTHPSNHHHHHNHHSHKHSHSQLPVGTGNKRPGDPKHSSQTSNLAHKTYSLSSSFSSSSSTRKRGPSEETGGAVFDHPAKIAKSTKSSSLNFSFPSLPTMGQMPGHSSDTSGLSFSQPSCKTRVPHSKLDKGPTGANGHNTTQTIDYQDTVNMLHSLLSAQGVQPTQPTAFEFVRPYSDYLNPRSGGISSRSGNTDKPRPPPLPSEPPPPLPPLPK

With `CC(C)Nc1nc(C#N)cc2cnc(NC3CCN(CC(=O)N(C)C)CC3)nc12` [Compound C3, 2-(4-((6-cyano-8-(isopropylamino)pyrido[3,4-d]pyrimidin-2-yl)amino)piperidin-1-yl)-N,N-dimethylacetamide], the IC50 stood at 27 nM. The molecule `N#Cc1cc2cnc(N[C@H]3CCCNC3)cc2c(NC2COC2)n1` [Compound 182, (S)-1-(oxetan-3-ylamino)-7-(piperidin-3-ylamino)-2,6-naphthyridine-3-carbonitrile] showed an IC50 of 15 nM. The result for `CC(C)Nc1nc(C#N)cc2cnc(N[C@@H]3CCCC[C@H]3O)cc12` [Compound 159, 7-(((1R,2R)-2-hydroxycyclohexyl)amino)-1-(isopropylamino)-2,6-naphthyridine-3-carbonitrile] reads 22 nM; that for `CCC(CC)c1nc(C#N)cc2cnc(N[C@H]3CCCNC3)cc12` [Compound 188, (S)-1-(pentan-3-yl)-7-(piperidin-3-ylamino)-2,6-naphthyridine-3-carbonitrile], 10 nM. The figure for `CC(C)(C)Nc1nc(C(F)F)cc2cnc(N[C@H]3C[C@@H](N)C3)cc12` [Compound 203, N^7-((1s,3s)-3-aminocyclobutyl)-N^1-(tert-butyl)-3-(difluoromethyl)-2,6-naphthyridine-1,7-diamine] is 1 nM.

As to `CC(C)Nc1nc(C#N)cc2cnc(N[C@H]3C[C@@]4(CCN4)C3)nc12` [Compound C37, 2-(((4r,6s)-1-azaspiro[3.3]heptan-6-yl)amino)-8-(isopropylamino)pyrido[3,4-d]pyrimidine-6-carbonitrile], the IC50 is 2 nM.

The molecule `CC(C)Nc1nc(C#N)cc2cnc(N[C@H]3C[C@H](N4CCOCC4)C3)nc12` [Compound C21, 8-(isopropylamino)-2-(((1r,3r)-3-morpholinocyclobutyl)amino)pyrido[3,4-d]pyrimidine-6-carbonitrile] came in with an IC50 of 4 nM. Turning to `CC(C)Nc1nc(C#N)cc2cnc(N[C@H]3CCCC[C@@H]3O)cc12` [Compound 156, 7-(((1S,2S)-2-hydroxycyclohexyl)amino)-1-(isopropylamino)-2,6-naphthyridine-3-carbonitrile], the midpoint of inhibition, the IC50, lay at 14 nM. The result for `CCNc1nc(C#N)cc2cnc(N[C@H]3C[C@](C)(N)C3)nc12` [Compound C38, 2-(((1r,3r)-3-amino-3-methylcyclobutyl)amino)-8-(ethylamino)pyrido[3,4-d]pyrimidine-6-carbonitrile] reads 1 nM; that for `CC(C)Nc1nc(C#N)cc2cnc(N[C@@H]3CCCNC3)nc12` [Compound C44, (R)-8-(isopropylamino)-2-(piperidin-3-ylamino)pyrido[3,4-d]pyrimidine-6-carbonitrile], 20 nM.

The molecule `CCOc1nc(C#N)cc2cnc(N[C@H]3C[C@H](N)C3)nc12` [Compound C47, 2-(((1r,3r)-3-aminocyclobutyl)amino)-8-ethoxypyrido[3,4-d]pyrimidine-6-carbonitrile] registered an IC50 of 24 nM.

In turn, `CC(C)Nc1nc(C#N)cc2cnc(N[C@@H]3CCNC3=O)nc12` [Compound 124, (R)-8-(isopropylamino)-2-((2-oxopyrrolidin-3-yl)amino)pyrido[3,4-d]pyrimidine-6-carbonitrile] registered an IC50 of 26 nM. The figure for `CCNc1nc(C#N)cc2cnc(N[C@H]3C[C@H](NC)C3)nc12` [Compound C43, 8-(ethylamino)-2-(((1r,3r)-3-(methylamino)cyclobutyl)amino)pyrido[3,4-d]pyrimidine-6-carbonitrile] is 1 nM; for `CC(=O)N1CCN([C@H]2C[C@H](Nc3ncc4cc(C#N)nc(NC(C)C)c4n3)C2)CC1` [Compound C32, 2-(((1r,3r)-3-(4-acetylpiperazin-1-yl)cyclobutyl)amino)-8-(isopropylamino)pyrido[3,4-d]pyrimidine-6-carbonitrile] it is 4 nM. The result for `CSc1nc(C#N)cc2cnc(N[C@H]3CCCNC3)cc12` [Compound 192, (S)-1-(methylthio)-7-(piperidin-3-ylamino)-2,6-naphthyridine-3-carbonitrile] reads 11 nM; that for `N#Cc1cc2cnc(N[C@H]3C[C@@H](O)C3)cc2c(N[C@@H]2CCOC2)n1` [Compound 176, 7-(((1s,3S)-3-hydroxycyclobutyl)amino)-1-(((R)-tetrahydrofuran-3-yl)amino)-2,6-naphthyridine-3-carbonitrile], 3 nM; that for `N#Cc1cc2cnc(N[C@H]3CCCNC3)cc2c(OC2CCC2)n1` [Compound 199, (S)-1-cyclobutoxy-7-(piperidin-3-ylamino)-2,6-naphthyridine-3-carbonitrile], 4 nM. The molecule `CN(C)[C@H]1CC[C@H](Nc2ncc3cc(C#N)nc(N[C@@H]4CCOC4)c3n2)CC1` [Compound C40, 2-(((1r,4R)-4-(dimethylamino)cyclohexyl)amino)-8-(((R)-tetrahydrofuran-3-yl)amino)pyrido[3,4-d]pyrimidine-6-carbonitrile] yielded an IC50 of 5 nM. The result for `N#Cc1cc2cnc(N[C@H]3C[C@H](N)C3)nc2c(N[C@@H]2CCCOC2)n1` [Compound C39, 2-(((1r,3R)-3-aminocyclobutyl)amino)-8-(((R)-tetrahydro-2H-pyran-3-yl)amino)pyrido[3,4-d]pyrimidine-6-carbonitrile] reads 1 nM; that for `CC(C)Nc1nc(C(F)F)c(C#N)c2cnc(N[C@H]3CCCNC3)nc12` [Compound 111, (S)-6-(difluoromethyl)-8-(isopropylamino)-2-(piperidin-3-ylamino)pyrido[3,4-d]pyrimidine-5-carbonitrile], 69 nM; that for `CC(C)Nc1nc(C#N)cc2cnc(N[C@H]3CCCC[C@H]3O)cc12` [Compound 160, 7-(((1S,2R)-2-hydroxycyclohexyl)amino)-1-(isopropylamino)-2,6-naphthyridine-3-carbonitrile], 26 nM. The result for `COC[C@H](C)Nc1nc(C#N)cc2cnc(N[C@H]3C[C@H](N)C3)nc12` [Compound C42, 2-(((1r,3S)-3-aminocyclobutyl)amino)-8-(((S)-1-methoxypropan-2-yl)amino)pyrido[3,4-d]pyrimidine-6-carbonitrile] reads 2 nM; that for `CC(C)Nc1nc(C#N)cc2cnc(N[C@H]3C[C@@H](CN)C3)nc12` [Compound C17, 2-(((1s,3s)-3-(aminomethyl)cyclobutyl)amino)-8-(isopropylamino)pyrido[3,4-d]pyrimidine-6-carbonitrile], 2 nM. The figure for `CC(C)(C)Nc1nc(C#N)cc2cnc(N[C@H]3C[C@](C)(N)C3)nc12` [Compound C34, 2-(((1r,3r)-3-amino-3-methylcyclobutyl)amino)-8-(tert-butylamino)pyrido[3,4-d]pyrimidine-6-carbonitrile] is 1 nM; for `CO[C@H]1C[C@H](Nc2ncc3cc(C#N)nc(NC(C)C)c3n2)C1` [Compound C12, 8-(isopropylamino)-2-(((1r,3r)-3-methoxycyclobutyl)amino)pyrido[3,4-d]pyrimidine-6-carbonitrile] it is 2 nM; for `CC(C)Nc1nc(C#N)cc2cnc(N[C@@H]3CCCC[C@@H]3O)cc12` [Compound 161, 7-(((1R,2S)-2-hydroxycyclohexyl)amino)-1-(isopropylamino)-2,6-naphthyridine-3-carbonitrile] it is 14 nM.
